Where a name gives a salt, the structure may show the parent alone. Read-outs that look alike come from different tables or passages of the source.
Columns and labels:
Assay type in all cases: cell-based
K. pneumoniae ATCC 33495 = assay: MIC, CLSI broth microdilution (Table 2); settings: Klebsiella pneumoniae
E. coli ATCC 25922 = assay: MIC, CLSI broth microdilution (Table 2); settings: Escherichia coli
[1] = test system: S. maltophilia ATCC 17677; assay: MIC, CLSI broth microdilution (Table 2); settings: Stenotrophomonas maltophilia
H. influenzae ATCC 49247 = assay: MIC, CLSI broth microdilution (Table 2); settings: Haemophilus influenzae
E. faecalis ATCC 29212 = assay: MIC, CLSI broth microdilution (Table 1); settings: Enterococcus faecalis
P. aeruginosa ATCC 27853 = assay: MIC, CLSI broth microdilution (Table 2); settings: Pseudomonas aeruginosa
S. aureus ATCC 25923 = assay: MIC, CLSI broth microdilution (Table 1); settings: Staphylococcus aureus
A. baumannii ATCC 19606 = assay: MIC, CLSI broth microdilution (Table 2); settings: Acinetobacter baumannii
[2] = test system: S. aureus BAA-1720 (MRSA, FQ-R); assay: MIC, CLSI broth microdilution (Table 1); settings: Staphylococcus aureus, read-out: MIC S. aureus BAA-1720 (MRSA, FQ-R)
E. faecium ATCC 19434 = assay: MIC, CLSI broth microdilution (Table 1); settings: Enterococcus faecium
[3] = test system: S. aureus ATCC 43300 (MRSA, FQ-S); assay: MIC, CLSI broth microdilution (Table 1); settings: Staphylococcus aureus, read-out: MIC S. aureus ATCC 43300 (MRSA, FQ-S)
S. pneumonia ATCC 49619 = assay: MIC, CLSI broth microdilution (Table 1); settings: Streptococcus pneumoniae
[4] = ATCC33495, Gram negative, MHB, 37° C., 16-20 hours, read-out: MIC K. pneumoniae ATCC 33495
[5] = ATCC25922, Gram negative, MHB, 37° C., 16-20 hours, read-out: MIC E. coli ATCC 25922
[6] = ATCC17677, Gram negative, MHB, 37° C., 16-20 hours, read-out: MIC S. maltophilia ATCC 17677
[7] = ATCC49247, Gram negative, MHB, 37° C., 16-20 hours, read-out: MIC H. influenzae ATCC 49247
[8] = ATCC29212, Gram positive, MHB, 37° C., 16-20 hours, read-out: MIC E. faecalis ATCC 29212
[9] = ATCC27853, Gram negative, MHB, 37° C., 16-20 hours, read-out: MIC P. aeruginosa ATCC 27853
[10] = ATCC25923, Gram positive, MHB, 37° C., 16-20 hours, read-out: MIC S. aureus ATCC 25923
[11] = ATCC19606, Gram negative, MHB, 37° C., 16-20 hours, read-out: MIC A. baumannii B. ATCC 19606
[12] = Gram positive, MHB, 37° C., 16-20 hours
[13] = ATCC19434, Gram positive, MHB, 37° C., 16-20 hours, read-out: MIC E. faecium ATCC 19434
[14] = ATCC49619, Gram positive, MHB, 37° C., 16-20 hours, read-out: MIC S. pneumonia ATCC 49619

MIC (K. pneumoniae ATCC 33495; [4])	MIC (E. coli ATCC 25922; [5])	MIC [1, 6]	MIC (H. influenzae ATCC 49247; [7])	MIC (E. faecalis ATCC 29212; [8])	MIC (P. aeruginosa ATCC 27853; [9])	MIC (S. aureus ATCC 25923; [10])	MIC (A. baumannii ATCC 19606; [11])	MIC [2, 12]	MIC (E. faecium ATCC 19434; [13])	MIC [3, 12]	MIC (S. pneumonia ATCC 49619; [14])	Structure (SMILES)	also measured
1 to 2 µg/mL	0.064 to 0.125 µg/mL	0.25 µg/mL	≤ 0.004 µg/mL	0.008 to 0.016 µg/mL	> 8 µg/mL	≤ 0.004 µg/mL	0.125 µg/mL	0.064 µg/mL	> 8 µg/mL	≤ 0.004 µg/mL	0.016 µg/mL	Cc1c(-c2cc(F)c(N)cc2F)c(F)cn2c(=O)c(C(=O)O)cc(C3CC3)c12 [Example 38 K salt, 8-(4-amino-2,5-difluoro-phenyl)-1-cyclopropyl-7-fluoro-9-methyl-4-oxo-4H-quinolizine-3-carboxylic acid]	
0.5 to 1 µg/mL	0.125 to 0.25 µg/mL	0.25 µg/mL	0.016 µg/mL	0.064 µg/mL	> 8 µg/mL	0.016 µg/mL	0.25 µg/mL	0.5 to 1 µg/mL	2 µg/mL	0.016 µg/mL	0.125 µg/mL	Cc1c(-c2ccc(C#N)c(F)c2)ccn2c(=O)c(C(=O)O)cc(C3CC3)c12 [Example 40 K salt, 8-(4-cyano-3-fluoro-phenyl)-1-cyclopropyl-9-methyl-4-oxo-4H-quinolizine-3-carboxylic acid]	
> 8 µg/mL	> 8 µg/mL	> 8 µg/mL	0.032 µg/mL	0.25 µg/mL	> 8 µg/mL	2 µg/mL	> 8 µg/mL	> 8 µg/mL	> 8 µg/mL	0.25 µg/mL	0.5 to 1 µg/mL	Cc1c(-c2ccc(C(=O)O)cc2)c(F)cn2c(=O)c(C(=O)O)cc(C3CC3)c12 [Example 41 K salt, 8-(4-carboxy-phenyl)-1-cyclopropyl-7-fluoro-9-methyl-4-oxo-4H-quinolizine-3-carboxylic acid]	
0.125 µg/mL	0.064 to 0.125 µg/mL	0.25 µg/mL	0.008 µg/mL	0.125 µg/mL	4 µg/mL	0.016 to 0.032 µg/mL	0.25 µg/mL	2 µg/mL	4 µg/mL	0.032 µg/mL	0.5 µg/mL	Cc1c(-c2cc[nH]c2)ccn2c(=O)c(C(=O)O)cc(C3CC3)c12 [Example 43 K salt, 1-cyclopropyl-9-methyl-4-oxo-8-(1H-pyrrol-3-yl)-4H-quinolizine-3-carboxylic acid]	
0.25 µg/mL	0.125 µg/mL	0.25 µg/mL	0.008 µg/mL	0.064 µg/mL	2 µg/mL	0.016 µg/mL	0.125 to 0.25 µg/mL	0.5 µg/mL	0.5 µg/mL	0.016 µg/mL	0.25 µg/mL	Cc1c(-c2ccc(F)cc2)ccn2c(=O)c(C(=O)O)cc(C3CC3)c12 [Example 44 K salt, 1-cyclopropyl-8-(4-fluoro-phenyl)-9-methyl-4-oxo-4H-quinolizine-3-carboxylic acid]	

Second part, the molecule before the results:

Structure (SMILES)	MIC (K. pneumoniae ATCC 33495; [4])	MIC (E. coli ATCC 25922; [5])	MIC [1, 6]	MIC (H. influenzae ATCC 49247; [7])	MIC (E. faecalis ATCC 29212; [8])	MIC (P. aeruginosa ATCC 27853; [9])	MIC (S. aureus ATCC 25923; [10])	MIC (A. baumannii ATCC 19606; [11])	MIC [2, 12]	MIC (E. faecium ATCC 19434; [13])	MIC [3, 12]	MIC (S. pneumonia ATCC 49619; [14])	also measured
Cc1c(N2CCNCC2)ccn2c(=O)c(C(=O)O)cc(C3CC3)c12 [Example 34 K salt, 1-cyclopropyl-9-methyl-4-oxo-8-piperazin-1-yl-quinolizine-3-carboxylic acid]	0.125 to 0.5 µg/mL	0.064 µg/mL	1 µg/mL	0.064 µg/mL	4 µg/mL	1 µg/mL	0.5 µg/mL	1 µg/mL	> 8 µg/mL	> 8 µg/mL	0.5 µg/mL	2 µg/mL	
Cc1c(N2CCC[C@H](N)C2)ccn2c(=O)c(C(=O)O)cc(C3CC3)c12 [Example 35 K salt, 8-[(3S)-3-amino-1-piperidyl]-1-cyclopropyl-9-methyl-4-oxo-quinolizine-3-carboxylic acid]	0.125 to 0.5 µg/mL	0.032 µg/mL	0.125 µg/mL	0.008 to 0.016 µg/mL	0.125 µg/mL	0.5 µg/mL	0.032 µg/mL	0.25 µg/mL	0.5 µg/mL	2 µg/mL	0.032 µg/mL	0.032 µg/mL	
Cc1c(-c2ccc(C(N)=O)cc2)ccn2c(=O)c(C(=O)O)cc(C3CC3)c12 [Example 36 K salt, 8-(4-carbamoyl-phenyl)-1-cyclopropyl-9-methyl-4-oxo-4H-quinolizine-3-carboxylic acid]	0.25 µg/mL	0.125 µg/mL	0.125 µg/mL	0.008 µg/mL	0.032 µg/mL	8 µg/mL	0.016 to 0.032 µg/mL	0.5 µg/mL	0.5 µg/mL	0.5 µg/mL	0.016 µg/mL	0.064 µg/mL	
Cc1c(-c2ccc(C(=O)O)cc2)ccn2c(=O)c(C(=O)O)cc(C3CC3)c12 [Example 37 K salt, 8-(4-carboxy-phenyl)-1-cyclopropyl-9-methyl-4-oxo-4H-quinolizine-3-carboxylic acid]	> 8 µg/mL	> 8 µg/mL	> 8 µg/mL	0.064 µg/mL	0.5 µg/mL	> 8 µg/mL	2 µg/mL	> 8 µg/mL	8 µg/mL	> 8 µg/mL	0.125 µg/mL	1 µg/mL	
Cc1c(-c2cc(F)c(N)c(F)c2)ccn2c(=O)c(C(=O)O)cc(C3CC3)c12 [Example 39 K salt, 8-(4-amino-3,5-difluoro-phenyl)-1-cyclopropyl-9-methyl-4-oxo-4H-quinolizine-3-carboxylic acid]													MIC (K. pneumoniae ATCC 33495; ATCC33495, read-out: MIC K. pneumoniae ATCC 33495): 0.125 µg/mL; MIC (E. coli ATCC 25922; ATCC25922, read-out: MIC E. coli ATCC 25922): 0.064 µg/mL; MIC ([1]; ATCC17677, read-out: MIC S. maltophilia ATCC 17677): 0.064 µg/mL; MIC (H. influenzae ATCC 49247; ATCC49247, read-out: MIC H. influenzae ATCC 49247): ≤ 0.004 µg/mL; MIC (E. faecalis ATCC 29212; ATCC29212, read-out: MIC E. faecalis ATCC 29212): 0.016 µg/mL; MIC (P. aeruginosa ATCC 27853; ATCC27853, read-out: MIC P. aeruginosa ATCC 27853): 2 µg/mL; MIC (S. aureus ATCC 25923; ATCC25923, read-out: MIC S. aureus ATCC 25923): ≤ 0.004 µg/mL; MIC (A. baumannii ATCC 19606; ATCC19606, read-out: MIC A. baumannii B. ATCC 19606): 0.064 µg/mL; MIC [2]: 0.125 µg/mL; MIC (E. faecium ATCC 19434; ATCC19434, read-out: MIC E. faecium ATCC 19434): 0.25 µg/mL; MIC [3]: ≤ 0.004 µg/mL; MIC (S. pneumonia ATCC 49619; ATCC49619, read-out: MIC S. pneumonia ATCC 49619): 0.032 µg/mL

From patent US20150141435A1, “2-PYRIDONE ANTIMICROBIAL COMPOSITIONS” (Emergent BioSolutions, priority 2010, published 2015)
